Test results from patent publication US20250304620A1, “ANTIMICROBIAL PEPTIDE AND APPLICATION THEREOF” (priority 2023, published 2025).
In brackets after ≈: the same amount, converted by molar mass. Marks after values point to notes of the source that are not given here. Non-standard residues stand in square brackets, D forms with d. Residues, ends and D or L forms follow the SMILES beside them. dPhe(3,4-F2) = N[C@H](Cc1ccc(F)c(F)c1)C(=O)O

Key:
[1] = system: Staphylococcus aureus (NRS 384); experiment: microbe, parasite or virus in culture; type: cell-based; conditions: NRS 384
In short: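 MICs were read against S. aureus strain NRS 384 using twofold serial dilution by CLSI microdilution rules. Levofloxacin and Cbf-K16 were the reference controls, and the test was repeated 5 times in parallel.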

[2] = system: Bacillus subtilis ATCC 6633; type: cell-based
In short: (§1)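 Serial twofold peptide dilutions were set up in microdilution format per CLSI, MICs were read, and the procedure was repeated in 5 parallel runs.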

[3] = system: Candida albicans ATCC MYA-2876; type: cell-based
In short: as §1

[4] = system: Candida glabrata ATCC 15126; type: cell-based
In short: as §1

Candida krusei ATCC 6258 = type: cell-based
In short: as §1

[5] = system: Candida tropicalis ATCC 750; type: cell-based
In short: as §1

Candida utilis ATCC 9950 = type: cell-based
In short: as §1

[6] = system: Corynebacterium ATCC 7715; type: cell-based
In short: as §1

Enterococcus ATCC 29212 = type: cell-based
In short: as §1

[7] = system: Escherichia coli ATCC 25922; type: cell-based
In short: as §1

[8] = system: Klebsiella pneumoniae ATCC 700603; type: cell-based
In short: as §1

[9] = system: Pseudomonas aeruginosa ATCC 27853; type: cell-based
In short: as §1

[10] = system: Salmonella typhimurium ATCC 14028; type: cell-based
In short: as §1

[11] = system: Serratia marcescens ATCC 29021; type: cell-based
In short: as §1

[12] = system: Staphylococcus aureus ATCC 25923; type: cell-based
In short: as §1

[13] = system: Trichophyton ATCC MYA-4438; type: cell-based
In short: as §1

[14] = system: Shigella flexneri ATCC 12022; experiment: MIC against clinically common bacterial strain; type: cell-based
In short: as §1

[15] = system: Methicillin-resistant Staphylococcus aureus (MRSA); type: cell-based; conditions: Methicillin-resistant
In short: (§2)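 Read-out is the minimum inhibitory concentration, obtained by twofold serial dilution in microdilution format per CLSI guidance, with five parallel runs.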

[16] = system: carbapenem-resistant Escherichia coli (CREC); type: cell-based; conditions: carbapenem-resistant (CREC)
In short: as §2

[17] = system: carbapenem-resistant Klebsiella pneumoniae (CRKP); type: cell-based; conditions: carbapenem-resistant (CRKP)
In short: as §2

[18] = system: carbapenem-resistant Pseudomonas aeruginosa (CRPA); type: cell-based; conditions: carbapenem-resistant (CRPA)
In short: as §2

[19] = system: vancomycin-resistant Enterococcus (VRE); type: cell-based
In short: as §2

[20] = system: Staphylococcus aureus (NRS 384); conditions: NRS 384, 3 h
Procedure: Trypsin (250 U/mg, pH=8.0) and AMPs (LV-1 to LV-30) were mixed in a ratio of 1:10 (w/w) and added to a reaction buffer (0.2 M sodium phosphate, 1 mM CaCl2), pH 7.5), and then incubated at 37° C. for 3 h.

[21] = system: Pseudomonas aeruginosa ATCC 27853; experiment: Injectable formulations on mice infected with peritonitis; type: in vivo, ICR mice; conditions: twice a day for 3 days; for Number of mice that died on each day after infection: day 1 / Number of mice that died on each day after infection: day 2 / Number of mice that died on each day after infection: day 3 / Number of mice that died on each day after infection: day 4 / Number of mice that died on each day after infection: day 5 / Average survival times (Days): n = 10; for Average survival times (Days): observed for 14 d
In short: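 Survival readout: deaths and survival time tracked for 14 d. Treatment was tail-vein injection by body weight, twice a day for 3 consecutive days, starting right after intraperitoneal challenge with 0.2 mL of 1×10^9 CFU/mL P. aeruginosa ATCC 27853 in male and female ICR mice.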

[22] = Serum stability assay (residual level by RP-HPLC); conditions: human

CC(=O)N[C@H](CCCCN)C(=O)N[C@H](CCCCN)C(=O)N[C@H](CC(C)C)C(=O)N[C@H](CC(C)C)C(=O)N[C@H](Cc1ccc(F)c(F)c1)C(=O)N[C@H](CCCNC(=N)N)C(=O)N[C@H](CC(C)C)C(=O)N[C@H](CCCCN)C(=O)N[C@H](Cc1ccc(F)c(F)c1)C(=O)N[C@H](CCCNC(=N)N)C(=O)N[C@H](CCCCN)C(N)=O [LV-25] (Ac-[dK][dK][dL][dL][dPhe(3,4-F2)][dR][dL][dK][dPhe(3,4-F2)][dR][dK]-NH2)
MIC against Staphylococcus aureus (NRS 384) [1]: 1 µg/mL (≈ 0.629 µM) | MIC Bacillus subtilis ATCC 6633 [2]: 8 µg/mL (≈ 5.03 µM) | MIC Candida albicans ATCC MYA-2876 [3]: 8 µg/mL (≈ 5.03 µM) | MIC Candida glabrata ATCC 15126 [4]: 8 µg/mL (≈ 5.03 µM) | MIC Candida krusei ATCC 6258 (Candida krusei ATCC 6258): 8 µg/mL (≈ 5.03 µM) | MIC Candida tropicalis ATCC 750 [5]: 8 µg/mL (≈ 5.03 µM) | MIC Candida utilis ATCC 9950 (Candida utilis ATCC 9950): 8 µg/mL (≈ 5.03 µM) | MIC Corynebacterium ATCC 7715 [6]: 2 µg/mL (≈ 1.26 µM) | MIC Enterococcus ATCC 29212 (Enterococcus ATCC 29212): 2 µg/mL (≈ 1.26 µM) | MIC Escherichia coli ATCC 25922 [7]: 1 µg/mL (≈ 0.629 µM) | MIC Klebsiella pneumoniae ATCC 700603 [8]: 8 µg/mL (≈ 5.03 µM) | MIC Pseudomonas aeruginosa ATCC 27853 [9]: 1 µg/mL (≈ 0.629 µM) | MIC Salmonella typhimurium ATCC 14028 [10]: 1 µg/mL (≈ 0.629 µM) | MIC Serratia marcescens ATCC 29021 [11]: 4 µg/mL (≈ 2.52 µM) | MIC Staphylococcus aureus ATCC 25923 [12]: 2 µg/mL (≈ 1.26 µM) | MIC Trichophyton ATCC MYA-4438 [13]: 8 µg/mL (≈ 5.03 µM) | MIC Shigella flexneri ATCC 12022 [14]: 2 µg/mL (≈ 1.26 µM) | MIC MRSA [15]: 2 µg/mL (≈ 1.26 µM) | MIC CREC [16]: 4 µg/mL (≈ 2.52 µM) | MIC CRKP [17]: 8 µg/mL (≈ 5.03 µM) | MIC CRPA [18]: 4 µg/mL (≈ 2.52 µM) | MIC VRE [19]: 8 µg/mL (≈ 5.03 µM) | Trypsin MIC [20]: 1 µg/mL | Number of mice that died on each day after infection: day 1 ([21]; 0.2 mg/kg via tail vein): 2 Mouse | Number of mice that died on each day after infection: day 2 ([21]; 0.2 mg/kg via tail vein): 1 Mouse | Number of mice that died on each day after infection: day 3 ([21]; 0.2 mg/kg via tail vein): 1 Mouse | Number of mice that died on each day after infection: day 4 ([21]; 0.2 mg/kg via tail vein): 1 Mouse | Number of mice that died on each day after infection: day 5 ([21]; 0.2 mg/kg via tail vein): 1 Mouse | Average survival times (Days) ([21]; 0.2 mg/kg via tail vein): 7.2** Days | Number of mice that died on each day after infection: day 1 ([21]; 1 mg/kg via tail vein): 0 Mouse | Number of mice that died on each day after infection: day 2 ([21]; 1 mg/kg via tail vein): 1 Mouse | Number of mice that died on each day after infection: day 3 ([21]; 1 mg/kg via tail vein): 1 Mouse | Number of mice that died on each day after infection: day 4 ([21]; 1 mg/kg via tail vein): 0 Mouse | Number of mice that died on each day after infection: day 5 ([21]; 1 mg/kg via tail vein): 1 Mouse | Average survival times (Days) ([21]; 1 mg/kg via tail vein): 10.8**** Days | Number of mice that died on each day after infection: day 1 ([21]; 5 mg/kg via tail vein): 0 Mouse | Number of mice that died on each day after infection: day 2 ([21]; 5 mg/kg via tail vein): 3 Mouse | Number of mice that died on each day after infection: day 3 ([21]; 5 mg/kg via tail vein): 0 Mouse | Number of mice that died on each day after infection: day 4 ([21]; 5 mg/kg via tail vein): 0 Mouse | Number of mice that died on each day after infection: day 5 ([21]; 5 mg/kg via tail vein): 0 Mouse | Average survival times (Days) ([21]; 5 mg/kg via tail vein): 10.4**** Days | survival time of mice infected with Pseudomonas aeruginosa ([21]; tail vein, observed 14 d): superior to those of the Levofloxacin group | remaining at 12 h, 0.91 mg/mL [22]: 97.8%
